Laboratory results: US11077090B2, “Compounds and compositions and uses thereof” (Sunovion Pharmaceuticals Inc., priority 2016, dated 2021)
Read-outs that look alike come from different tables or passages of the source.

Legend:
Male C57Bl/6J mice = experiment: Marble burying test; assay type: in vivo; design: key: −: No reduction in number of marbles buried; +: Significant reduction in number of marbles buried (P < 0.05 vs vehicle)
Experimental: The marble burying assay is used to evaluate the anxiolytic activity of a test compound. After placement in a novel cage containing glass marbles, mice will bury the marbles. Acute administration of anxiolytic agents, as well as antidepressants, decrease this activity at non-sedating doses. Male C57Bl/6J mice from Jackson Laboratories were used in this study and were acclimatized to the experimental room for at least 1 hour prior to testing. Mice (n=10 per group) were administered sterile water or test compound intraperitoneally (i.p.) or orally by gavage (p.o.), or the positive control chlordiazepoxide (15 mg/kg, i.p.), in 10 mL/kg injection volumes, and returned to their home cages for a 30-minute pretreatment period. The mice were then placed individually in clean cages, containing hard wood bedding and twenty black marbles placed in spaced rows of 4×5. After a 30-minute test session, the number of buried marbles was counted. A marble was considered buried if it was pushed at least two thirds into the bedding. Locomotor activity was monitored by measuring the distance traveled using an overhead camera and Video Tracker Software (ViewPoint Life Sciences Software, France). A reduction in the number of marbles buried relative to the vehicle condition indicates an anxiolytic drug-like effect.

compound-treated mice = experiment: Neuropharmacological assay (SmartCube): behavioral activity signature and minimal effective dose; assay type: in vivo; settings: for Potency: minimal effective dose (MED), binned / minimal effective dose: MED = dose having 50% or more total activity; for AD: ADHD (probability of activity signature) / AG: analgesic (probability of activity signature) / AX: anxiolytic (probability of activity signature) / CE: cognitive enhancer (probability of activity signature) / DP: anti-depressant (probability of activity signature) / MS: mood stabilizer (probability of activity signature) / PS: anti-psychotic (probability of activity signature) / SD: sedative hypnotic (probability of activity signature) / UN: uncharacterized CNS activity (probability of activity signature): i.p. 15 min before test, most efficacious dose(s); for minimal effective dose: Mus musculus, ip
Method in brief: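 Video-recorded behavior is compared algorithmically against a reference-compound database, yielding class probabilities (best dose reported). Compounds given i.p. in NMP/PEG/propylene glycol 15 min pre-test at 3 doses; potency as MED, the dose (mpk, range usually 0.3–30) reaching ≥50% total activity.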

[1] = read-out: Potency: minimal effective dose (MED), binned

For `CC[C@@H]1OCc2ccccc2[C@H]1N` (single isomer, unassigned) [Compound 195], the “Marbles Buried” value (Male C57Bl/6J mice; 1 mg/kg (i.p.)) was “−”.

For `CC[C@@H]1OCc2ccccc2[C@H]1N` (single isomer, unassigned) [Example 195], the “Potency: minimal effective dose (MED), binned” value (compound-treated mice) was “A (≤3 mpk)”, the “AD: ADHD (probability of activity signature)” value (“AD: ADHD” below) (compound-treated mice) was “+ (LOQ ≤ + <5%)” and the “AG: analgesic (probability of activity signature)” value (from here on “AG: analgesic”) (compound-treated mice) was “++ (5% ≤ ++ <25%)”. The “AX: anxiolytic (probability of activity signature)” value (“AX: anxiolytic” below) (compound-treated mice) was “++ (5% ≤ ++ <25%)”, the “CE: cognitive enhancer (probability of activity signature)” value (“CE: cognitive enhancer” below) (compound-treated mice) was “++ (5% ≤ ++ <25%)” and the “DP: anti-depressant (probability of activity signature)” value (“DP: anti-depressant” below) (compound-treated mice) was “++ (5% ≤ ++ <25%)”. The “MS: mood stabilizer (probability of activity signature)” value (“MS: mood stabilizer” for short) (compound-treated mice) was “+ (LOQ ≤ + <5%)”, the “PS: anti-psychotic (probability of activity signature)” value (from here on “PS: anti-psychotic”) (compound-treated mice) was “++ (5% ≤ ++ <25%)” and the “SD: sedative hypnotic (probability of activity signature)” value (“SD: sedative hypnotic” for short) (compound-treated mice) was “++ (5% ≤ ++ <25%)”. The “UN: uncharacterized CNS activity (probability of activity signature)” value (“UN: uncharacterized CNS activity” below) (compound-treated mice) was “++++ (50% ≤ ++++)”, the “Marbles Buried” value (Male C57Bl/6J mice; 3 mg/kg (i.p.)) was “−” and the “Marbles Buried” value (Male C57Bl/6J mice; 10 mg/kg (i.p.)) was “+”.

With `C[C@@H]1OCc2cccc(Cl)c2[C@H]1N` (single isomer, unassigned) [Example 160] the “Potency: minimal effective dose (MED), binned” value (compound-treated mice) was “A (≤3 mpk)”, the “AD: ADHD” value (compound-treated mice) was “+ (LOQ ≤ + <5%)” and the “AG: analgesic” value (compound-treated mice) was “++ (5% ≤ ++ <25%)”. The “AX: anxiolytic” value (compound-treated mice) was “++ (5% ≤ ++ <25%)”, the “CE: cognitive enhancer” value (compound-treated mice) was “++ (5% ≤ ++ <25%)” and the “DP: anti-depressant” value (compound-treated mice) was “+ (LOQ ≤ + <5%)”. For the same compound, the “MS: mood stabilizer” value (compound-treated mice) was “+ (LOQ ≤ + <5%)”, the “PS: anti-psychotic” value (compound-treated mice) was “++ (5% ≤ ++ <25%)” and the “SD: sedative hypnotic” value (compound-treated mice) was “+ (LOQ ≤ + <5%)”. The “UN: uncharacterized CNS activity” value (compound-treated mice) was “+++ (25% ≤ +++ <50%)”, the “Marbles Buried” value (Male C57Bl/6J mice; 3 mg/kg (i.p.)) was “−” and the “Marbles Buried” value (Male C57Bl/6J mice; 10 mg/kg (i.p.)) was “+”.

In the case of `C[C@@H]1OCc2cccc(Cl)c2[C@H]1N` (single isomer, unassigned) [Compound 160], the “Marbles Buried” value (Male C57Bl/6J mice; 1 mg/kg (i.p.)) is reported as “−”.

In the case of `C[C@H]1OCc2ccc(F)cc2[C@H]1N` [Example 186], the minimal effective dose (compound-treated mice; [1]) is reported as 3 to 10 mg/kg, the “AD: ADHD” value (compound-treated mice) is reported as “+ (LOQ ≤ + <5%)” and the “AG: analgesic” value (compound-treated mice) is reported as “++ (5% ≤ ++ <25%)”. For the same compound, the “AX: anxiolytic” value (compound-treated mice) was “++ (5% ≤ ++ <25%)”, the “CE: cognitive enhancer” value (compound-treated mice) was “++ (5% ≤ ++ <25%)” and the “DP: anti-depressant” value (compound-treated mice) was “++ (5% ≤ ++ <25%)”. The “MS: mood stabilizer” value (compound-treated mice) was “+ (LOQ ≤ + <5%)”, the “PS: anti-psychotic” value (compound-treated mice) was “++ (5% ≤ ++ <25%)” and the “SD: sedative hypnotic” value (compound-treated mice) was “+ (LOQ ≤ + <5%)”. For the same compound, the “UN: uncharacterized CNS activity” value (compound-treated mice) was “+++ (25% ≤ +++ <50%)”.

For `CC(C)[C@@H]1OCc2ccccc2[C@H]1N.Cl` (relative stereo) [Example 257, trans-3-Isopropylisochroman-4-amine hydrochloride], the minimal effective dose (compound-treated mice; [1]) was 3 to 10 mg/kg, the “AD: ADHD” value (compound-treated mice) was “+ (LOQ ≤ + <5%)” and the “AG: analgesic” value (compound-treated mice) was “+ (LOQ ≤ + <5%)”. The “AX: anxiolytic” value (compound-treated mice) was “+ (LOQ ≤ + <5%)”, the “CE: cognitive enhancer” value (compound-treated mice) was “+ (LOQ ≤ + <5%)” and the “DP: anti-depressant” value (compound-treated mice) was “++ (5% ≤ ++ <25%)”. For the same compound, the “PS: anti-psychotic” value (compound-treated mice) was “++ (5% ≤ ++ <25%)”, the “UN: uncharacterized CNS activity” value (compound-treated mice) was “++ (5% ≤ ++ <25%)” and the “MS: mood stabilizer” value (compound-treated mice; hydrochloride) was “++ (5% ≤ ++ <25%)”. For the same compound, the “SD: sedative hypnotic” value (compound-treated mice; hydrochloride) was “+++ (25% ≤ +++ <50%)”.

`Cc1cccc2c1[C@H](N)[C@@H](C)OC2` (single isomer, unassigned) [Example 167] was tested, and the minimal effective dose (compound-treated mice; [1]) was < 3 mg/kg, the “AD: ADHD” value (compound-treated mice) was “+ (LOQ ≤ + <5%)” and the “AG: analgesic” value (compound-treated mice) was “++ (5% ≤ ++ <25%)”. For the same compound, the “AX: anxiolytic” value (compound-treated mice) was “++ (5% ≤ ++ <25%)”, the “CE: cognitive enhancer” value (compound-treated mice) was “+ (LOQ ≤ + <5%)” and the “DP: anti-depressant” value (compound-treated mice) was “+ (LOQ ≤ + <5%)”. The “MS: mood stabilizer” value (compound-treated mice) was “+ (LOQ ≤ + <5%)”, the “PS: anti-psychotic” value (compound-treated mice) was “++ (5% ≤ ++ <25%)” and the “SD: sedative hypnotic” value (compound-treated mice) was “+ (LOQ ≤ + <5%)”. The “UN: uncharacterized CNS activity” value (compound-treated mice) was “++++ (50% ≤ ++++)”.

With `N[C@@H]1COCc2ccc(F)cc21` (single isomer, unassigned) [Example 113] the minimal effective dose (compound-treated mice; read-out: Potency: minimal effective dose (MED)) was 3 to 10 mg/kg, the “AD: ADHD” value (compound-treated mice) was “+ (LOQ ≤ + <5%)” and the “AG: analgesic” value (compound-treated mice) was “++ (5% ≤ ++ <25%)”. The “AX: anxiolytic” value (compound-treated mice) was “++ (5% ≤ ++ <25%)”, the “CE: cognitive enhancer” value (compound-treated mice) was “++ (5% ≤ ++ <25%)” and the “DP: anti-depressant” value (compound-treated mice) was “++ (5% ≤ ++ <25%)”. For the same compound, the “MS: mood stabilizer” value (compound-treated mice) was “+ (LOQ ≤ + <5%)”, the “PS: anti-psychotic” value (compound-treated mice) was “++ (5% ≤ ++ <25%)” and the “SD: sedative hypnotic” value (compound-treated mice) was “+ (LOQ ≤ + <5%)”. The “UN: uncharacterized CNS activity” value (compound-treated mice) was “+++ (25% ≤ +++ <50%)”.

For `COc1cccc2c1CO[C@H](C)[C@H]2N.Cl` [Example 235], the minimal effective dose (compound-treated mice; [1]) was > 30 mg/kg, the “AD: ADHD” value (compound-treated mice) was “+ (LOQ ≤ + <5%)” and the “AG: analgesic” value (compound-treated mice) was “+ (LOQ ≤ + <5%)”. For the same compound, the “AX: anxiolytic” value (compound-treated mice) was “++ (5% ≤ ++ <25%)”, the “CE: cognitive enhancer” value (compound-treated mice) was “+ (LOQ ≤ + <5%)” and the “DP: anti-depressant” value (compound-treated mice) was “+ (LOQ ≤ + <5%)”. For the same compound, the “MS: mood stabilizer” value (compound-treated mice) was “+ (LOQ ≤ + <5%)”, the “PS: anti-psychotic” value (compound-treated mice) was “+ (LOQ ≤ + <5%)” and the “SD: sedative hypnotic” value (compound-treated mice) was “+ (LOQ ≤ + <5%)”. For the same compound, the “UN: uncharacterized CNS activity” value (compound-treated mice) was “+ (LOQ ≤ + <5%)”.

`CC[C@H]1OCc2ccccc2[C@H]1N` (single isomer, unassigned) [Example 192] was tested, and the minimal effective dose (compound-treated mice; [1]) was < 3 mg/kg, the “AD: ADHD” value (compound-treated mice) was “+ (LOQ ≤ + <5%)” and the “AG: analgesic” value (compound-treated mice) was “+ (LOQ ≤ + <5%)”. For the same compound, the “AX: anxiolytic” value (compound-treated mice) was “++ (5% ≤ ++ <25%)”, the “CE: cognitive enhancer” value (compound-treated mice) was “++ (5% ≤ ++ <25%)” and the “DP: anti-depressant” value (compound-treated mice) was “+ (LOQ ≤ + <5%)”. For the same compound, the “MS: mood stabilizer” value (compound-treated mice) was “+ (LOQ ≤ + <5%)”, the “PS: anti-psychotic” value (compound-treated mice) was “++ (5% ≤ ++ <25%)” and the “SD: sedative hypnotic” value (compound-treated mice) was “++ (5% ≤ ++ <25%)”. The “UN: uncharacterized CNS activity” value (compound-treated mice) was “++++ (50% ≤ ++++)”.

`Cc1ccc2c(c1)CO[C@H](C)[C@H]2N` [Example 252] was tested, and the minimal effective dose (compound-treated mice; [1]) was < 3 mg/kg, the “AD: ADHD” value (compound-treated mice) was “+ (LOQ ≤ + <5%)” and the “AG: analgesic” value (compound-treated mice) was “+ (LOQ ≤ + <5%)”. For the same compound, the “AX: anxiolytic” value (compound-treated mice) was “+ (LOQ ≤ + <5%)”, the “CE: cognitive enhancer” value (compound-treated mice) was “+ (LOQ ≤ + <5%)” and the “DP: anti-depressant” value (compound-treated mice) was “++ (5% ≤ ++ <25%)”. For the same compound, the “MS: mood stabilizer” value (compound-treated mice) was “++ (5% ≤ ++ <25%)”, the “PS: anti-psychotic” value (compound-treated mice) was “++ (5% ≤ ++ <25%)” and the “SD: sedative hypnotic” value (compound-treated mice) was “++ (5% ≤ ++ <25%)”. For the same compound, the “UN: uncharacterized CNS activity” value (compound-treated mice) was “++++ (50% ≤ ++++)”.
